Source: patent US20240317744A1, “Bicyclic Ureas As Kinase Inhibitors” (Incyte Corporation, priority 2023, published 2024)

Key:
[1] = molecular target: T1, pseudo-kinase domain (JH2, amino-acids 536-812) of human V617F mutant JAK2 (Homo sapiens, UniProt O60674, F794H/V617F/W659A/W777A); test: JAK2 LanthaScreen JH2-V617F Binding Assay; details: JAK2 JH2-V617F 0.26 nM, 50 nM tracer, 1 hour at 25° C.; read-out: JH2 BIND V617F
T1 construct: pseudo-kinase domain (JH2, amino-acids 536-812 with 3 surface mutations W659A, W777A, F794H); His (C); purchased BPS Bioscience 79498; host or cells: baculovirus expression system
T1 sequence (O60674 536-812 V617F/W659A/W777A/F794H): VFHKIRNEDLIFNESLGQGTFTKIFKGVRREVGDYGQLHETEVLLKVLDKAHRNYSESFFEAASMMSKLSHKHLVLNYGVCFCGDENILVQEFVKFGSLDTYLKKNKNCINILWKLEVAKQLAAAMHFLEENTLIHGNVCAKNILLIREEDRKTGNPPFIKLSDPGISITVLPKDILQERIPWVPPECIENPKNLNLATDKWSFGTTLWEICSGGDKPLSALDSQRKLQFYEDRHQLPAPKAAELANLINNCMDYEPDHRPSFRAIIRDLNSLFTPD
Outline: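 IC50 values came from four-parameter dose-response fits of LanthaScreen signal, read after compounds sat 1 hour at 25° C with 0.26 nM baculovirus-expressed biotinylated protein, 50 nM fluorescent tracer and 0.25 nM streptavidin-Tb cryptate. Non-specific binding was set with 2 mM ATP.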

[2] = molecular target: catalytic domain (JH1, amino acids 808-1132) of human JAK2 (Homo sapiens, UniProt O60674); test: JAK2 HTRF Enzyme Activity Assay; assay type: biochemical; details: ATP 30 µM, 60 minutes at 25° C.; read-out: V617F ENZ 30 UM
Sequence of catalytic domain (JH1, amino acids 808-1132) of human JAK2 (O60674 808-1132 limits assumed): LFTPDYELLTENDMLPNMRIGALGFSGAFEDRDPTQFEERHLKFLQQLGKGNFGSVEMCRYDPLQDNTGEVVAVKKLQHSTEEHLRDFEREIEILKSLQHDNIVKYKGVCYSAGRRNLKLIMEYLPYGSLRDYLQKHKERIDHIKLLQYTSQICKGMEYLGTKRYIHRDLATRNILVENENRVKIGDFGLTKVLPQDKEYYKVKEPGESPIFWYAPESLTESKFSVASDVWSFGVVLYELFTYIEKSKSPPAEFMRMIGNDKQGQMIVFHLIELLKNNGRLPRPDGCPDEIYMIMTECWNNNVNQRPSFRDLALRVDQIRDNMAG

[3] = molecular target: T2, catalytic domain (JH1, amino acids 826-1132) of human JAK2 (Homo sapiens, UniProt O60674); test: JAK2 LanthaScreen JH1 Binding Assay; details: JAK2 JH1 1.5 nM, 50 nM tracer, 2 hours at 25° C.; read-out: JH1 BIND
T2 construct: catalytic domain (JH1, amino acids 826-1132) of human JAK2; FLAG (N); biotin (biotinylated); purchased Carna Biosciences 08-445-20N; host or cells: baculovirus expression system
T2 sequence (O60674 826-1132): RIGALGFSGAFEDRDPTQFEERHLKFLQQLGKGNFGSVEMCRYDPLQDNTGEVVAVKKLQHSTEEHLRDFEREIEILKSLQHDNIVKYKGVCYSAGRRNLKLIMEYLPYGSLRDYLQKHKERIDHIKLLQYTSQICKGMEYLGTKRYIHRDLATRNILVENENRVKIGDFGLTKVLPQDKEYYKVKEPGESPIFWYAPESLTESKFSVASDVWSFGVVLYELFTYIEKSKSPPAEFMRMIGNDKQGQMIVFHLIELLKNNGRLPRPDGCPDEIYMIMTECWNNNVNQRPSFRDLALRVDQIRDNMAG
Outline: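 FLAG-tagged, biotinylated JAK2 JH1 (aa 826-1132, baculovirus-expressed; 1.5 nM) incubated 2 h at 25° C with compounds, 50 nM fluorescent tracer and 0.5 nM Streptavidin-Tb in Tris pH 7.5 buffer with MgCl2, Brij-35, BSA, EGTA, glycerol, DTT. Nonspecific binding defined with 2 mM ATP; TR-FRET IC50 from four-parameter fit.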

[4] = molecular target: T3, pseudo-kinase domain (JH2, amino-acids 536-812) of human Wild Type JAK2 (Homo sapiens, UniProt O60674, F794H/W659A/W777A); test: JAK2 LanthaScreen JH2-WT Binding Assay; details: JAK2 JH2-WT 0.145 nM, 50 nM tracer, 1 hour at 25° C.; read-out: JH2 BIND WT
T3 construct: pseudo-kinase domain (JH2, amino-acids 536-812 with 3 surface mutations W659A, W777A, F794H); His (C); purchased BPS Bioscience 79463; host or cells: baculovirus expression system
T3 sequence (O60674 536-812 W659A/W777A/F794H): as the sequence (O60674 536-812 V617F/W659A/W777A/F794H) above, with F82V counted along it
Outline: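 Binding was measured by TR-FRET between streptavidin-Tb (0.25 nM) on biotinylated JH2 (0.145 nM) and 50 nM fluorescent tracer, with compound dose series, 1 h at 25° C; IC50 fitted.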

Compound	IC50 [1] [nM]	IC50 [2] [nM]	IC50 [3] [nM]	IC50 [4] [nM]
[2H]C([2H])([2H])n1c(=O)n([C@@H]2CC[C@@H](NC(=O)OC)C2)c2cc(Nc3cc(C)cc(-c4ncc(C(C)(C)O)s4)n3)ncc21 [Example 99, Methyl ((1R,3R)-3-(6-((6-(5-(2-hydroxypropan-2-yl)thiazol-2-yl)-4-methylpyridin-2-yl)amino)-3-(methyl-d3)-2-oxo-2,3-dihydro-1H-imidazo[4,5-c]pyridin-1-yl)cyclopentyl)carbamate]	≤ 10	> 1000	> 1000	≤ 10
[2H]C([2H])([2H])n1c(=O)n([C@@H]2CC[C@@H](NC(=O)OC)C2)c2cc(Nc3cc(C(C)(C)O)cc(-c4ncc(C(F)(F)F)s4)n3)ncc21 [Example 100, Methyl ((1R,3R)-3-(6-((4-(2-hydroxypropan-2-yl)-6-(5-(trifluoromethyl)thiazol-2-yl)pyridin-2-yl)amino)-3-(methyl-d3)-2-oxo-2,3-dihydro-1H-imidazo[4,5-c]pyridin-1-yl)cyclopentyl)carbamate]	≤ 10	> 1000	> 1000	≤ 10
[2H]C([2H])([2H])n1c(=O)n([C@@H]2CC[C@@H](NC(=O)OC)C2)c2cc(Nc3cc(CN4CC(C(F)F)C4)cc(-c4ncc(C(F)(F)F)s4)n3)ncc21 [Example 101, Methyl ((1R,3R)-3-(6-((4-((3-(difluoromethyl)azetidin-1-yl)methyl)-6-(5-(trifluoromethyl)thiazol-2-yl)pyridin-2-yl)amino)-3-(methyl-d3)-2-oxo-2,3-dihydro-1H-imidazo[4,5-c]pyridin-1-yl)cyclopentyl)carbamate]	≤ 10	> 1000	> 1000	≤ 10
[2H]C([2H])([2H])n1c(=O)n([C@@H]2CC[C@@H](NC(=O)OC)C2)c2cc(Nc3cc(C(=O)N4CCOCC4)c(-c4cnn(C)c4)c(OC4CCC4)n3)ncc21 [Example 102, Methyl ((1R,3R)-3-(6-((6-cyclobutoxy-5-(1-methyl-1H-pyrazol-4-yl)-4-(morpholine-4-carbonyl)pyridin-2-yl)amino)-3-(methyl-d3)-2-oxo-2,3-dihydro-1H-imidazo[4,5-c]pyridin-1-yl)cyclopentyl)carbamate]	≤ 10	> 1000	> 1000	≤ 10
[2H]C([2H])([2H])n1c(=O)n([C@@H]2CC[C@@H](NC(=O)OC)C2)c2cc(Nc3cc(CO)nc(-c4ccc(C(F)F)s4)n3)ncc21 [Example 103, Methyl ((1R,3R)-3-(6-((2-(5-(difluoromethyl)thiophen-2-yl)-6-(hydroxymethyl)pyrimidin-4-yl)amino)-3-(methyl-d3)-2-oxo-2,3-dihydro-1H-imidazo[4,5-c]pyridin-1-yl)cyclopentyl)carbamate]	≤ 10	> 1000	> 1000	≤ 10
[2H]C([2H])([2H])n1c(=O)n([C@@H]2CC[C@@H](NC(=O)OC)C2)c2cc(Nc3cc(C(=O)N4CCOCC4)cc(-c4ccc(C(F)F)s4)n3)ncc21 [Example 104, Methyl ((1R,3R)-3-(6-((6-(5-(difluoromethyl)thiophen-2-yl)-4-(morpholine-4-carbonyl)pyridin-2-yl)amino)-3-(methyl-d3)-2-oxo-2,3-dihydro-1H-imidazo[4,5-c]pyridin-1-yl)cyclopentyl)carbamate]	≤ 10	500 to 1000	> 1000	≤ 10
[2H]C([2H])([2H])n1c(=O)n([C@@H]2CC[C@@H](NC(=O)OC)C2)c2cc(Nc3cc(C4CCN(C(C)=O)CC4)cc(-c4ncc(C(F)(F)F)s4)n3)ncc21 [Example 105, Methyl ((1R,3R)-3-(6-((4-(1-acetylpiperidin-4-yl)-6-(5-(trifluoromethyl)thiazol-2-yl)pyridin-2-yl)amino)-3-(methyl-d3)-2-oxo-2,3-dihydro-1H-imidazo[4,5-c]pyridin-1-yl)cyclopentyl)carbamate]	≤ 10	> 1000	> 1000	≤ 10
[2H]C([2H])([2H])n1c(=O)n([C@H]2C[C@H](C(C)(C)O)C2)c2cc(Nc3cc(-c4cnccc4C(F)(F)F)c4nc(C)c(-c5cnn(C(F)F)c5)n4n3)ncc21 [Example 106, 6-((3-(1-(Difluoromethyl)-1H-pyrazol-4-yl)-2-methyl-8-(4-(trifluoromethyl)pyridin-3-yl)imidazo[1,2-b]pyridazin-6-yl)amino)-1-((1r,3r)-3-(2-hydroxypropan-2-yl)cyclobutyl)-3-(methyl-d3)-1,3-dihydro-2H-imidazo[4,5-c]pyridin-2-one]	≤ 10	> 1000	> 1000	≤ 10
[2H]C([2H])([2H])n1c(=O)n([C@@H]2CC[C@@H](NC(=O)OC)C2)c2cc(Nc3cc(-c4cnn(C)c4)cc(-c4ncc(C(C)(C)O)s4)n3)ncc21 [Example 107, Methyl ((1R,3R)-3-(6-((6-(5-(2-hydroxypropan-2-yl)thiazol-2-yl)-4-(1-methyl-1H-pyrazol-4-yl)pyridin-2-yl)amino)-3-(methyl-d3)-2-oxo-2,3-dihydro-1H-imidazo[4,5-c]pyridin-1-yl)cyclopentyl)carbamate]	≤ 10	> 1000	> 1000	≤ 10
[2H]C([2H])([2H])n1c(=O)n([C@@H]2CC[C@@H](NC(=O)OC)C2)c2cc(Nc3cccc(-n4cc(C(F)(F)F)cn4)n3)ncc21 [Example 108, Methyl ((1R,3R)-3-(3-(methyl-d3)-2-oxo-6-((6-(4-(trifluoromethyl)-1H-pyrazol-1-yl)pyridin-2-yl)amino)-2,3-dihydro-1H-imidazo[4,5-c]pyridin-1-yl)cyclopentyl)carbamate]	≤ 10	> 1000	> 1000	≤ 10
[2H]C([2H])([2H])n1c(=O)n([C@@H]2CC[C@@H](NC(=O)OC)C2)c2cc(Nc3ccc4c(n3)n(-c3cnn(C(F)F)c3)c(=O)n4CC3(C#N)CC3)ncc21 [Example 114, Methyl ((1R,3R)-3-(6-((1-((1-cyanocyclopropyl)methyl)-3-(1-(difluoromethyl)-1H-pyrazol-4-yl)-2-oxo-2,3-dihydro-1H-imidazo[4,5-b]pyridin-5-yl)amino)-3-(methyl-d3)-2-oxo-2,3-dihydro-1H-imidazo[4,5-c]pyridin-1-yl)cyclopentyl)carbamate]	≤ 10	> 1000	> 1000	≤ 10
[2H]C([2H])([2H])n1c(=O)n([C@@H]2CC[C@@H](NC(=O)OC)C2)c2cc(Nc3cc(C(C)(C)O)c4nc(C)n(-c5cnn(C(F)F)c5)c4n3)ncc21 [Example 115, Methyl ((1R,3R)-3-(6-((3-(1-(difluoromethyl)-1H-pyrazol-4-yl)-7-(2-hydroxypropan-2-yl)-2-methyl-3H-imidazo[4,5-b]pyridin-5-yl)amino)-3-(methyl-d3)-2-oxo-2,3-dihydro-1H-imidazo[4,5-c]pyridin-1-yl)cyclopentyl)carbamate]	≤ 10	> 1000	> 1000	≤ 10
[2H]C([2H])([2H])n1c(=O)n([C@@H]2CC[C@@](C)(NC(=O)C3CC3)C2)c2cc(Nc3cc(C(=O)N4CCOCC4)c4cccc(C(F)(F)F)c4n3)ncc21 [Example 116, N-((1R,3R)-1-methyl-3-(3-(methyl-d3)-6-((4-(morpholine-4-carbonyl)-8-(trifluoromethyl)quinolin-2-yl)amino)-2-oxo-2,3-dihydro-1H-imidazo[4,5-c]pyridin-1-yl)cyclopentyl)cyclopropanecarboxamide]	≤ 10	100 to 500	100 to 500	≤ 10
[2H]C([2H])([2H])n1c(=O)n([C@@H]2CC[C@](C)(NC(=O)C3CC3)C2)c2cc(Nc3cc(CO)c4nn(C)c(-c5cnn(C(F)(F)F)c5)c4n3)ncc21 [Example 117, N-((1S,3R)-3-(6-((7-(hydroxymethyl)-2-methyl-3-(1-(trifluoromethyl)-1H-pyrazol-4-yl)-2H-pyrazolo[4,3-b]pyridin-5-yl)amino)-3-(methyl-d3)-2-oxo-2,3-dihydro-1H-imidazo[4,5-c]pyridin-1-yl)-1-methylcyclopentyl)cyclopropanecarboxamide]	≤ 10	> 1000	> 1000	≤ 10
